ChEMBL document CHEMBL4373717, “Coumarin-containing hybrids and their anticancer activities” (Eur J Med Chem, 2019)
Values after ≈ are worked out from the molar mass of the structure shown. Values belong to the compound of their own block, whether it stands above or below them.

Columns and labels:
Assay type in all cases: functional, cell-based
MDA-MB-231 [1] = experiment: Cytotoxicity against human MDA-MB-231 cells assessed as reduction in cell viability after 24 hrs by MTT assay
A549 [2] = experiment: Cytotoxicity against human A549 cells assessed as reduction in cell viability after 24 hrs by MTT assay; settings: A549, 24 h
MCF7 [3] = experiment: Cytotoxicity against human MCF7 cells assessed as reduction in cell viability after 48 hrs by MTT assay; settings: MCF7, 48 h
A549 [4] = experiment: Anticancer activity against human A549 cells by MTT assay
MDA-MB-231 [5] = experiment: Anticancer activity against human MDA-MB-231 cells by MTT assay
HeLa [6] = experiment: Anticancer activity against human HeLa cells by MTT assay
K562 [7] = experiment: Anticancer activity against human K562 cells by MTT assay
769-P = experiment: Anticancer activity against human 769-P cells by MTT assay
HepG2 = experiment: Anticancer activity against human HepG2 cells by MTT assay
MCF7 [8] = experiment: Cytotoxicity against human MCF7 cells assessed as reduction in cell viability after 68 hrs by MTT assay; settings: MCF7, 68 h
HeLa [9] = experiment: Cytotoxicity against human HeLa cells assessed as reduction in cell viability after 68 hrs by MTT assay
K562 [10] = experiment: Cytotoxicity against human K562 cells assessed as reduction in cell viability after 68 hrs by MTT assay; settings: K562, 68 h
A549 [11] = experiment: Cytotoxicity against human A549 cells assessed as reduction in cell viability after 68 hrs by MTT assay; settings: A549, 68 h

SMILES: COc1ccc(NC(=O)c2ccc(-n3cc(COc4cc(=O)oc5ccccc45)nn3)cc2)cc1
IC50 (MDA-MB-231 [1]; mda-mb-231): 0.03 to 91.6 µM

SMILES: Cc1ccc(-c2cc(-c3cc4ccccc4oc3=O)nc(Cc3ccc(F)cc3)n2)cc1
IC50 (MDA-MB-231 [1]; Homo sapiens, MDA-MB-231, 24 h): 2.15 to 28.6 µM
IC50 (A549 [2]): 2.15 to 28.6 µM

SMILES: COc1ccc(-c2csc(-n3nc(C)cc3-c3cc4cc(Br)ccc4oc3=O)n2)cc1
IC50 (MCF7 [3]): 4.03 to 31.5 µM

SMILES: Cc1cc(-c2cc3ccccc3oc2=O)n(-c2nc(-c3ccc(Br)cc3)cs2)n1
IC50 (MCF7 [3]): 4.03 to 31.5 µM

SMILES: O=c1oc2ccccc2cc1-c1cc(-c2cccc(Br)c2)nc(Cc2ccc(F)cc2)n1
IC50 (MDA-MB-231 [1]; Homo sapiens, MDA-MB-231, 24 h): 2.15 to 28.6 µM
IC50 (A549 [2]): 2.15 to 28.6 µM

IC50 (A549 [4]): 0.16 to 1.12 µg/mL
IC50 (MDA-MB-231 [5]): 0.16 to 1.12 µg/mL
IC50 (HeLa [6]): 0.16 to 1.12 µg/mL (≈ 0.266 to 1.86 µM)
IC50 (K562 [7]): 0.16 to 1.12 µg/mL (≈ 0.266 to 1.86 µM)
SMILES: COc1ccc(/N=c2\scc(-c3cc4ccccc4oc3=O)n2-n2c(C)nn(-c3ccc(Br)cc3)c2=O)cc1

SMILES: COC(=O)c1cccc(NC(=O)c2ccc(-n3cc(COc4cc(=O)oc5ccccc45)nn3)cc2)c1
IC50 (MDA-MB-231 [1]; mda-mb-231): 0.03 to 91.6 µM

SMILES: O=C(Nc1ccccc1Br)c1ccc(-n2cc(COc3cc(=O)oc4ccccc34)nn2)cc1
IC50 (MDA-MB-231 [1]; mda-mb-231): 0.03 to 91.6 µM

SMILES: Cc1ccccc1NC(=O)c1ccc(-n2cc(COc3cc(=O)oc4ccccc34)nn2)cc1
IC50 (MDA-MB-231 [1]; mda-mb-231): 0.03 to 91.6 µM

IC50 (MDA-MB-231 [5]): 0.383 to 13.6 µM
IC50 (HepG2): 0.383 to 13.6 µM
SMILES: Cc1cc(=O)oc2cc(OCc3cn(CCCCOc4ccc5ccc(=O)oc5c4)nn3)ccc12
IC50 (769-P): 0.383 to 13.6 µM

IC50 (A549 [4]): 0.42 to 0.43 µM
SMILES: Cc1ccc2c(C3C4=C(CCCC4=O)OC3c3cc(=O)oc4ccc(C)cc34)cc(=O)oc2c1 (stereo not drawn)

SMILES: Cc1cccc(-c2cc(-c3cc4ccccc4oc3=O)nc(Cc3ccc(F)cc3)n2)c1
IC50 (MDA-MB-231 [1]; Homo sapiens, MDA-MB-231, 24 h): 2.15 to 28.6 µM
IC50 (A549 [2]): 2.15 to 28.6 µM

IC50 (MDA-MB-231 [5]): 0.383 to 13.6 µM
IC50 (HepG2): 0.383 to 13.6 µM
SMILES: Cc1cc(=O)oc2cc(OCc3cn(CCCCCCOc4ccc5ccc(=O)oc5c4)nn3)ccc12
IC50 (769-P): 0.383 to 13.6 µM

SMILES: Cc1ccc(NC(=O)Nc2ccc(Cc3c(C)c4cc(C(C)(C)C)c(O)cc4oc3=O)cn2)cc1C
IC50 (MCF7 [8]): 1.66 to 19.4 µM
IC50 (HeLa [9]): 1.66 to 19.4 µM
IC50 (K562 [10]): 1.66 to 19.4 µM
IC50 (A549 [11]): 1.66 to 19.4 µM

SMILES: O=C(Nc1ccc(F)c(Cl)c1)c1ccc(-n2cc(COc3cc(=O)oc4ccccc34)nn2)cc1
IC50 (MDA-MB-231 [1]; mda-mb-231): 0.03 to 91.6 µM

IC50 (MDA-MB-231 [5]): 0.383 to 13.6 µM
IC50 (HepG2): 0.383 to 13.6 µM
SMILES: O=c1ccc2ccc(OCCCCCCCn3cc(COc4ccc5ccc(=O)oc5c4)nn3)cc2o1
IC50 (769-P): 0.383 to 13.6 µM

IC50 (A549 [4]): 0.16 to 1.12 µg/mL
IC50 (MDA-MB-231 [5]): 0.16 to 1.12 µg/mL
IC50 (HeLa [6]): 0.16 to 1.12 µg/mL (≈ 0.28 to 1.96 µM)
IC50 (K562 [7]): 0.16 to 1.12 µg/mL (≈ 0.28 to 1.96 µM)
SMILES: Cc1nn(-c2ccc(Br)cc2)c(=O)n1-n1c(-c2cc3ccccc3oc2=O)cs/c1=N\c1ccccc1

SMILES: O=c1oc2ccccc2cc1-c1cc(-c2ccc(Br)cc2)nc(Cc2ccc(F)cc2)n1
IC50 (MDA-MB-231 [1]; Homo sapiens, MDA-MB-231, 24 h): 2.15 to 28.6 µM
IC50 (A549 [2]): 2.15 to 28.6 µM

IC50 (MDA-MB-231 [5]): 0.383 to 13.6 µM
IC50 (HepG2): 0.383 to 13.6 µM
SMILES: Cc1cc(=O)oc2cc(OCc3cn(CCCCCCCOc4ccc5ccc(=O)oc5c4)nn3)ccc12
IC50 (769-P): 0.383 to 13.6 µM

IC50 (A549 [4]): 0.16 to 1.12 µg/mL
IC50 (MDA-MB-231 [5]): 0.16 to 1.12 µg/mL
IC50 (HeLa [6]): 0.16 to 1.12 µg/mL (≈ 0.298 to 2.08 µM)
IC50 (K562 [7]): 0.16 to 1.12 µg/mL (≈ 0.298 to 2.08 µM)
SMILES: COc1ccc(/N=c2\scc(-c3cc4ccccc4oc3=O)n2-n2c(C)nn(-c3ccc(C)cc3)c2=O)cc1

SMILES: COc1ccc(OC)c(NC(=O)Nc2ccc(Cc3c(C)c4cc(C(C)(C)C)c(O)cc4oc3=O)cn2)c1
IC50 (MCF7 [8]): 1.66 to 19.4 µM
IC50 (HeLa [9]): 1.66 to 19.4 µM
IC50 (K562 [10]): 1.66 to 19.4 µM
IC50 (A549 [11]): 1.66 to 19.4 µM

IC50 (A549 [4]): 0.16 to 1.12 µg/mL
IC50 (MDA-MB-231 [5]): 0.16 to 1.12 µg/mL
IC50 (HeLa [6]): 0.16 to 1.12 µg/mL (≈ 0.289 to 2.02 µM)
IC50 (K562 [7]): 0.16 to 1.12 µg/mL (≈ 0.289 to 2.02 µM)
SMILES: COc1ccc(/N=c2\scc(-c3cc4ccccc4oc3=O)n2-n2c(C)nn(-c3ccc(OC)cc3)c2=O)cc1

SMILES: CCc1ccccc1NC(=O)c1ccc(-n2cc(COc3cc(=O)oc4ccccc34)nn2)cc1
IC50 (MDA-MB-231 [1]; mda-mb-231): 0.03 to 91.6 µM

IC50 (A549 [4]): 0.16 to 1.12 µg/mL
IC50 (MDA-MB-231 [5]): 0.16 to 1.12 µg/mL
IC50 (HeLa [6]): 0.16 to 1.12 µg/mL (≈ 0.295 to 2.07 µM)
IC50 (K562 [7]): 0.16 to 1.12 µg/mL (≈ 0.295 to 2.07 µM)
SMILES: Cc1ccc(-n2nc(C)n(-n3c(-c4cc5ccccc5oc4=O)cs/c3=N\c3ccc(Cl)cc3)c2=O)cc1

IC50 (MDA-MB-231 [5]): 0.383 to 13.6 µM
IC50 (HepG2): 0.383 to 13.6 µM
SMILES: O=c1ccc2ccc(OCCCCCCCCCCCCn3cc(COc4ccc5ccc(=O)oc5c4)nn3)cc2o1
IC50 (769-P): 0.383 to 13.6 µM

IC50 (A549 [4]): 0.16 to 1.12 µg/mL
IC50 (MDA-MB-231 [5]): 0.16 to 1.12 µg/mL
IC50 (HeLa [6]): 0.16 to 1.12 µg/mL (≈ 0.306 to 2.14 µM)
IC50 (K562 [7]): 0.16 to 1.12 µg/mL (≈ 0.306 to 2.14 µM)
SMILES: COc1ccc(-n2nc(C)n(-n3c(-c4cc5ccccc5oc4=O)cs/c3=N\c3ccccc3)c2=O)cc1

SMILES: O=C(O)c1c(-c2cc3cc(Cl)ccc3oc2=O)[nH]c2ccccc12
IC50 (MCF7 [3]): 5.5 to 100 µM

SMILES: O=C(Nc1ccccc1)c1ccc(-n2cc(COc3cc(=O)oc4ccccc34)nn2)cc1
IC50 (MDA-MB-231 [1]; mda-mb-231): 0.03 to 91.6 µM

IC50 (A549 [4]): 0.42 to 0.43 µM
SMILES: Cc1ccc2oc(=O)cc(C3OC4=C(C(=O)CCC4)C3c3cc(=O)oc4ccc(C)cc34)c2c1 (stereo not drawn)

SMILES: O=c1oc2ccccc2cc1-c1cc(-c2cccc(Cl)c2)nc(Cc2ccc(F)cc2)n1
IC50 (MDA-MB-231 [1]; Homo sapiens, MDA-MB-231, 24 h): 2.15 to 28.6 µM
IC50 (A549 [2]): 2.15 to 28.6 µM

IC50 (MDA-MB-231 [5]): 0.383 to 13.6 µM
IC50 (HepG2): 0.383 to 13.6 µM
SMILES: O=c1ccc2ccc(OCCCn3cc(COc4ccc5ccc(=O)oc5c4)nn3)cc2o1
IC50 (769-P): 0.383 to 13.6 µM

IC50 (MDA-MB-231 [5]): 0.383 to 13.6 µM
IC50 (HepG2): 0.383 to 13.6 µM
SMILES: O=c1ccc2ccc(OCCCCCCCCCn3cc(COc4ccc5ccc(=O)oc5c4)nn3)cc2o1
IC50 (769-P): 0.383 to 13.6 µM

IC50 (MDA-MB-231 [5]): 0.383 to 13.6 µM
IC50 (HepG2): 0.383 to 13.6 µM
SMILES: Cc1cc(=O)oc2cc(OCc3cn(CCCCCCCCCCOc4ccc5ccc(=O)oc5c4)nn3)ccc12
IC50 (769-P): 0.383 to 13.6 µM
